Source: US9549935B2, “Methods and compositions for treating migraines using noribogaine” (DemeRx, Inc., priority 2014, dated 2017)

Test: Plasma noribogaine glucuronide pharmacokinetics after single oral noribogaine doses in healthy volunteers
Assay type: in vivo, human
Settings: for AUC0-216 of noribogaine glucuronide / AUC0-∞ of noribogaine glucuronide / Cmax of noribogaine glucuronide / Tmax of noribogaine glucuronide / t1/2 of noribogaine glucuronide: healthy volunteers, mean (SD), n = 6
Description: Blood was obtained for pharmacokinetic assessments pre-dose and then at 0.25, 0.5, 0.75, 1.0, 1.25, 1.5, 2, 2.5, 3, 3.5, 4, 4.5, 5, 5.5, 6, 7, 8, 10, 12, 14, 18, 24, 30, 36, 48, 60, 72, 96, 120, 168 and 216 hours post-dose. Samples were centrifuged and plasma stored at −70° C. until analyzed. Block 24 hour urine collections were obtained following study drug administration for the 30 and 60 mg cohorts. Aliquots were frozen at −20° C. until analyzed.
Plasma noribogaine glucuronide concentrations were determined in the 30 mg and 60 mg dose groups using a validated sensitive LCMSMS method. Sample preparation involved deproteinization of plasma samples with acetonitrile, drying the samples under a stream of nitrogen and reconstitution of sample with acetonitrile:B.P. water (5:95, v/v) containing 0.1% (v/v) formic acid. The compounds were separated by a 150×2.0 mm Luna 5 μm C18 column and detected with a triple-quadrupole API 4000 or 5000 mass spectrometer using electrospray ionization in positive mode and multiple reaction monitoring. Noribogaine-d4 was used as the internal standard. The precursor-product ion transition values for noribogaine glucuronide were m/z 472.8→297.3, and for the internal standard noribogaine-d4 m/z 301.1→122.2. Analyst® software was used for data acquisition and processing. The ratio of the peak area of noribogaine glucuronide to the internal standard noribogaine-d4 was used for calibration and measurement of the unknown concentration of noribogaine glucuronide. The LLOQ was 0.050 ng/ml noribogaine glucuronide. The calibration curve was between 0.050 and 6.400 ng/ml noribogaine glucuronide. Mobile phases was the same as method A. Binary flow: Initial concentration was 6% mobile phase B; hold at 6% mobile phase B for 0.5 minutes and linear rise to 90% mobile phase B over 2 minutes; hold at 90% mobile phase B for 1 minute and then drop back to 6% mobile phase B over 0.01 minute. Equilibrate system for 3.5 minutes. Total run time was 7 minutes. The within- and between-day assay precision was <11%, and the within- and between-day assay accuracy was <10%.
Noribogaine and noribogaine glucuronide concentrations above the limit of quantification were used to calculate pharmacokinetic parameters using model-independent methods. The maximum plasma concentration (Cmax) and time to maximum plasma concentration (Tmax) were the observed values. Plasma concentration data in the post-distribution phase of the plasma concentration-time plot were fitted using linear regression to the formula ln C=ln Co−t.Kel, where Co was the zero-time intercept of the extrapolated terminal phase and Kel was the terminal elimination rate constant. […] The area under the concentration-time curve (AUC) from time zero to the last determined concentration-time point (tf) in the post distribution phase was calculated using the trapezoidal rule. The area under the curve from the last concentration-time point in the post distribution phase (Ctf) to time infinity was calculated from AUCt-∞=Ctf/Kel. The concentration used for Ctf was the last determined value above the LLOQ at the time point. The total AUC0-∞ was obtained by adding AUCtf and AUCt-∞. Noribogaine apparent clearance (CL/F) was determined using the formula CL/F=Dose/AUC0-∞×1000, and apparent volume of distribution (Vd/F) was determined using the formula Vd/F=(CL/F)/Kel. Total urine noribogaine was the sum of both analytes.

[1] = 30 mg and 60 mg noribogaine dose groups, plasma
[2] = after single oral 30 mg noribogaine, plasma
[3] = after single oral 60 mg noribogaine, plasma

Structure (SMILES): CC[C@H]1C[C@@H]2C[C@H]3c4[nH]c5ccc(OC6OC(C(=O)O)C(O)C(O)C6O)cc5c4CCN(C2)[C@@H]13 (some centres unmarked) [Noribogaine glucuronide, noribogaine glucuronide]
- Mean half-life of plasma noribogaine glucuronide (30 mg and 60 mg noribogaine dose groups): 21 to 23 h
- time by which noribogaine glucuronide was detected in all subjects [1]: ≤ 0.75 h
- time of peak noribogaine glucuronide concentrations after noribogaine dosing [1]: 3 to 4 h
- AUC0-216 of noribogaine glucuronide [2]: 25.7 (9.1) ng · hr/ml
- AUC0-∞ of noribogaine glucuronide [2]: 25.8 (9.3) ng · hr/ml
- Cmax of noribogaine glucuronide [2]: 1.8 (0.6) ng/ml
- Tmax of noribogaine glucuronide [2]: 3.0 (0.6) hr
- t1/2 of noribogaine glucuronide [2]: 20.6 (4.9) hr
- AUC0-216 of noribogaine glucuronide [3]: 65.0 (21.5) ng · hr/ml
- AUC0-∞ of noribogaine glucuronide [3]: 67.1 (21.9) ng · hr/ml
- Cmax of noribogaine glucuronide [3]: 4.1 (1.2) ng/ml
- Tmax of noribogaine glucuronide [3]: 3.8 (1.2) hr
- t1/2 of noribogaine glucuronide [3]: 23.1 (3.0) hr
- proportion of noribogaine glucuronide Cmax and AUC relative to noribogaine (both dose groups (30 mg and 60 mg)): 3-4%
